Experimental data from patent publication US20220313698A1, “MODULATORS OF CYSTIC FIBROSIS TRANSMEMBRANE CONDUCTANCE REGULATOR” (Vertex Pharmaceuticals Incorporated, priority 2019, published 2022).

Key:
[1] = from CC1(C)C[C@H](CCCN(c2ccccc2)c2cccc(S(=O)(=O)NC(=O)c3ccc(-n4ccc(OCCC5(C(F)(F)F)CC5)n4)nc3Cl)n2)CN1; snar bond; 15-membered ring; K2CO3/3A MS; DMSO; 19.9 mM; 155.0 °C; 16.0 h; 2 steps
[2] = biological target: CFTR-mediated chloride transport (Homo sapiens, UniProt P13569); assay: Corrector Assay B - membrane potential dye assay (enteroid cells);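 further: methyl oxonol membrane potential fluorescence followed over 15 min after switching to chloride-free buffer with forskolin, 100 µM IBMX and ivacaftor, in presence of CaCC blockers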
Experimental: Base medium (ADF+++) consisted of Advanced DMEM/Ham's F12, 2 mM Glutamax, 10 mM HEPES, 1 μg/ml penicillin/streptomycin.
Intestinal enteroid maintenance medium (IEMM) consisted of ADF+++, 1×B27 supplement, 1×N2 supplement, 1.25 mM N-acetyl cysteine, 10 mM Nicotinamide, 50 ng/mL hEGF, 10 nM Gastrin, 1 μg/mL hR-spondin-1, 100 ng/mL hNoggin, TGF-b type 1 inhibitor A-83-01, 100 μg/mL Primocin, 10 μM P38 MAPK inhibitor SB202190.
Bath 1 Buffer consisted of 1 mM MgCl2, 160 mM NaCl, 4.5 mM KCl, 10 mM HEPES, 10 mM Glucose, 2 mM CaCl2).
Chloride Free Buffer consisted of 1 mM Magnesium Gluconate, 2 mM Calcium Gluconate, 4.5 mM Potassium Gluconate, 160 mM Sodium Gluconate, 10 mM HEPES, 10 mM Glucose.
Bath 1 Dye Solution consisted of Bath 1 Buffer, 0.04% Pluronic F127, 20 μM Methyl Oxonol, 30 μM CaCCinh-A01, 30 μM Chicago Sky Blue.
Chloride Free Dye Solution consisted of Chloride Free Buffer, 0.04% Pluronic F127, 20 μM Methyl Oxonol, 30 μM CaCCinh-A01, 30 μM Chicago Sky Blue.
Chloride Free Dye Stimulation Solution consisted of Chloride Free Dye Solution, 10 μM forskolin, 100 μM IBMX, and 300 nM Ivacaftor.
Cells were recovered in cell recovery solution, collected by centrifugation at 650 rpm for 5 min at 4° C., resuspended in TryPLE and incubated for 5 min at 37° C. Cells were then collected by centrifugation at 650 rpm for 5 min at 4° C. and resuspended in IEMM containing 10 μM ROCK inhibitor (RI). The cell suspension was passed through a 40 μm cell strainer and resuspended at 1×10^6 cells/mL in IEMM containing 10 μM RI. Cells were seeded at 5000 cells/well into multi-well plates and incubated for overnight at 37° C., 95% humidity and 5% CO2 prior to assay.
Briefly, cells were washed 5 times in Bath 1 Buffer. Bath 1 Dye Solution was added and the cells were incubated for 25 min at room temperature. Following dye incubation, cells were washed 3 times in Chloride Free Dye Solution. Chloride transport was initiated by addition of Chloride Free Dye Stimulation Solution and the fluorescence signal was read for 15 min. The CFTR-mediated chloride transport for each condition was determined from the AUC of the fluorescence response to acute forskolin and 300 nM N-[2,4-bis(1,1-dimethylethyl)-5-hydroxyphenyl]-1,4-dihydro-4-oxoquinoline-3-carboxamide stimulation. Chloride transport was then expressed as a percentage of the chloride transport following treatment with 3 μM Compound A, 3 μM (R)-1-(2,2-difluorobenzo[d][1,3]dioxol-5-yl)-N-(1-(2,3-dihydroxypropyl)-6-fluoro-2-(1-hydroxy-2-methylpropan-2-yl)-1H-indol-5-yl)cyclopropanecarboxamide and 300 nM acute N-[2,4-bis(1,1-dimethylethyl)-5-hydroxyphenyl]-1,4-dihydro-4-oxoquinoline-3-carboxamide triple combination control (% Activity).

## CC1(C)C[C@@H]2CCCN(c3ccccc3)c3cccc(n3)S(=O)(=O)NC(=O)c3ccc(-n4ccc(OCCC5(C(F)(F)F)CC5)n4)nc3N1C2 [Compound 395, (14S)-12,12-dimethyl-18-phenyl-8-(3-{2-[1-(trifluoromethyl)cyclopropyl]ethoxy}-1H-pyrazol-1-yl)-2λ^6-thia-3,9,11,18,23-pentaazatetracyclo[17.3.1.111,14.05,10]tetracosa-1(23),5(10),6,8,19,21-hexaene-2,2,4-trione]
[1]
  ring closure, isolated yield: 46%
[2]; % of chloride transport of triple combination control (3 μM Compound A + 3 μM tezacaftor + 300 nM ivacaftor)
  Corrector Assay B % activity: ++ (++ is 30-60%)
[2]; read-out: Corrector Assay B EC50, human intestinal enteroid cells, 18-24 h incubation, acute 10 μM forskolin + 300 nM ivacaftor
  EC50: < 1 µM
